Measured values as given in PMC9138141, “Design, Spectral Characteristics, Photostability, and Possibilities for Practical Application of BODIPY FL-Labeled Thioterpenoid” (Bioengineering, 2022).
Each block holds one compound with its values, some of them ahead of it.

Columns and labels:
[1] = Electronic absorption spectra in organic solvents; format: physicochemical
Procedure: (§1) The absorption and emission spectra of dyes solutions (in the range of 10^−6 to 10^−5 M) were recorded on CM 2203 spectrofluorometer (SOLAR) in a 10 mm of absorbing layer thickness at T = 25 ± 0.1 °C. The fluorescence quantum yield (φ), the fluorescence lifetime (τ), the rate constants of radiative processes (krad), and-radiative deactivation (knr) were obtained to use by the standard procedure. The fluorescence quantum yields (φ) of compounds were measured using the standard method (using standard Rhodamine 6G). The φ and τ errors were 10–15 %. The Stokes shift ( ΔλSt ) was calculated by the formula: […]

RBC = assay: Uptake by erythrocytes visualized with CytoFLEX; format: cell-based, mice; settings: 0.1 µM, 10 min, 488/521 nm λex/λem
Procedure: The uptake of compounds by erythrocytes was visualized using CytoFLEX SRT (Beckman Coulter) (0.2% suspension of RBC, compound concentration 0.1 μM), exposure time 10 min. Each experiment was carried out in 5–15 replicates. Statistical analysis was conducted using Microsoft Office Excel 2007 software packages. The data represent the mean ± SE.

[2] = tested on: laboratory mice erythrocytes; assay: Hemolytic activity (erythrotoxicity); format: cell-based; settings: 20 µM, entire incubation period 5 h, 37 °C, PBS pH 7.4
Procedure: A 0.5% (v/v) suspension of laboratory mice erythrocytes in phosphate-buffered saline (PBS, pH 7.4) was used. The hemolytic activity (erythrotoxicity) of the compounds 2 and 6 was assessed by the degree of erythrocyte hemolysis 1, 3, and 5 h after the addition of solutions of the test compounds in DMSO (final concentration 20 μM). The erythrocyte suspension was incubated in a thermostatic shaker Biosan ES-20 with slow stirring at 37 °C temperature for 5 h. After 1, 3, and 5 h, an aliquot was taken, centrifuged, the degree of hemolysis was determined by the hemoglobin content in the supernatant on a Thermo Spectromic Genesys 20 spectrophotometer at λ = 541 nm. The percentage of hemolysis was calculated relative to the total hemolysis of the sample.

[3] = Luminescent characteristics (fluorescence) in organic solvents; format: physicochemical; settings: for λmaxfl: λex 470 nm
Procedure: as §1

[4] = tested on: laboratory mice erythrocytes; assay: Penetration into RBC (fluorescence of hemolysates and of residual medium); format: cell-based
Procedure: To assess the rate of penetration of the BODIPY 2 and its conjugate with a thioterpenoid 6 into RBC, the compounds were added to a suspension of erythrocytes (final concentration 20 μM) and incubated in a thermostatic shaker Biosan ES-20 with slow stirring at 37 °C. After 10, 30, and 60 min, an aliquot was taken and centrifuged to separate erythrocytes from the incubation medium containing the BODIPY 2 or conjugate 6. Erythrocytes were washed three times with PBS, hemolyzed by adding H2O, DMSO was added, and the fluorescence spectra of hemolysates were studied using a Fluorat-02-Panorama spectrofluorometer (Lumex, Saint Petersburg, Russia). The binding of the BODIPY 2 or conjugate 6 to cells was judged from the fluorescence intensity of the corresponding compounds in hemolysates. DMSO was added to the medium (PBS) remaining after cell incubation, and the corresponding fluorescence spectra were also analyzed. Its intensity was used to judge the residual content of the studied compounds in PBS.

[5] = Photobleaching (photodegradation) under UV irradiation at 365 nm; format: physicochemical
Procedure: The photofading was carried out in quartz cells. The BODIPY solutions in cyclohexane (toluene, 1-octanol, DMSO with c = ~1·10^−5 mol·L^−1) were irradiated with monochromatic light (mercury lamp 250 W with a light filter Carl Zeiss JENA, at λ = 365 nm and room temperature). The area of the light flux was 2.02 cm^2 at a specific power W365 = 4.04 mW·cm^−2 of the UV lamp. The irreversible bleaching of the luminophores at the absorption peak was monitored as a function of time. The EAS of the dye solution was recorded at equal intervals of irradiation (through 5–20 min) on a spectrofluorometer SM2203 in the 300–600 nm wavelength range. The half-life (t1/2) was defined as the time during which the chromophore is destroyed by 50%. The error in determining of t1/2 is 3–5%.
The observed photooxidation rate constants (kobs) were determined by the equation ln(At/A0) = kobs∙t, where A0 and At are the initial and current optical density at the maximum of the long-wavelength absorption band, respectively, and t is the time of irradiation of the sample with UV light.

[6] = Solubility in water / micellar solution (NMR samples); format: physicochemical; settings: DPC micelles, D2O
[7] = range over the solvents studied

ε, molar absorption coefficient ([1]; 1-butanol): 66887 L/mol/cm
λmaxabs S0→S1 ([1]; 1-butanol): 501 nm
λmaxabs S0→S2 ([1]; 1-butanol): 355–366 nm
ε, molar absorption coefficient ([1]; 1-octanol): 68275 L/mol/cm
λmaxabs S0→S1 ([1]; 1-octanol): 501 nm
λmaxabs S0→S2 ([1]; 1-octanol): 355–363 nm
ε, molar absorption coefficient ([1]; 1-propanol): 68931 L/mol/cm
λmaxabs S0→S1 ([1]; 1-propanol): 500 nm
λmaxabs S0→S2 ([1]; 1-propanol): 356–361 nm
ε, molar absorption coefficient ([1]; DMF): 70218 L/mol/cm
λmaxabs S0→S1 ([1]; DMF): 499 nm
λmaxabs S0→S2 ([1]; DMF): 357–361 nm
ε, molar absorption coefficient ([1]; DMSO): 68188 L/mol/cm
λmaxabs S0→S1 ([1]; DMSO): 500 nm
λmaxabs S0→S2 ([1]; DMSO): 355–360 nm
extinction coefficient ɛ, range ([1]; at 498–503 nm, organic solvents, in L/mol·cm): 64,000–78,000
ε, molar absorption coefficient ([1]; chloroform): 76900 L/mol/cm
λmaxabs S0→S1 ([1]; chloroform): 503 nm
λmaxabs S0→S2 ([1]; chloroform): 352–363 nm
ε, molar absorption coefficient ([1]; cyclohexane): 75390 L/mol/cm
λmaxabs S0→S1 ([1]; cyclohexane): 502 nm
λmaxabs S0→S2 ([1]; cyclohexane): 357–362 nm
ε, molar absorption coefficient ([1]; ethanol): 64235 L/mol/cm
λmaxabs S0→S1 ([1]; ethanol): 498 nm
λmaxabs S0→S2 ([1]; ethanol): 359–361 nm
ε, molar absorption coefficient ([1]; toluene): 78830 L/mol/cm
λmaxabs S0→S1 ([1]; toluene): 503 nm
λmaxabs S0→S2 ([1]; toluene): 352–360 nm
ΔλSt, Stokes shift ([3]; 1-butanol): 15 nm
φ, fluorescence quantum yield ([3]; 1-butanol): 0.884
λmaxfl ([3]; 1-butanol): 516 nm
ΔλSt, Stokes shift ([3]; 1-octanol): 13 nm
φ, fluorescence quantum yield ([3]; 1-octanol): 0.941
λmaxfl ([3]; 1-octanol): 514 nm
ΔλSt, Stokes shift ([3]; 1-propanol): 14 nm
φ, fluorescence quantum yield ([3]; 1-propanol): 0.861
λmaxfl ([3]; 1-propanol): 514 nm
ΔλSt, Stokes shift ([3]; DMF): 16 nm
φ, fluorescence quantum yield ([3]; DMF): 0.833
increase of nonradiative deactivation constant knr ([3]; DMF and DMSO compared to cyclohexane): 200–300 times
λmaxfl ([3]; DMF): 515 nm
ΔλSt, Stokes shift ([3]; DMSO): 15 nm
φ, fluorescence quantum yield ([3]; DMSO): 0.763
λmaxfl ([3]; DMSO): 515 nm
fluorescence quantum yield φ, range ([3]; at 514–519 nm, organic solvents): 76–100%
ΔλSt, Stokes shift ([3]; chloroform): 14 nm
φ, fluorescence quantum yield ([3]; chloroform): 0.878
λmaxfl ([3]; chloroform): 517 nm
ΔλSt, Stokes shift ([3]; cyclohexane): 13 nm
φ, fluorescence quantum yield ([3]; cyclohexane): 0.999
λmaxfl ([3]; cyclohexane): 515 nm
fluorescence quenching ([3]; electron-donating media): 16–24%
ΔλSt, Stokes shift ([3]; ethanol): 16 nm
φ, fluorescence quantum yield ([3]; ethanol): 0.857
increase of fluorescence quantum yield in the homologous series of alcohols ([3]; ethanol, 1-propanol, 1-butanol, 1-octanol): ~ 8%
λmaxfl ([3]; ethanol): 514 nm
constants of radiative processes (krad) [3, 7]: 5.96–8.33 × 10^7 s^−1
fluorescence lifetime [3, 7]: 10.2–16.0 ns
ΔλSt, Stokes shift ([3]; toluene): 16 nm
φ, fluorescence quantum yield ([3]; toluene): 0.867
λmaxfl ([3]; toluene): 519 nm
emission band maxima λmaxfl, range ([3]; λex = 470 nm, all solvents): 510–519 nm
increase of photodegradation (photooxidation) efficiency in DMSO ([5]; DMSO compared to cyclohexane): > 10 times
increase of photostability compared to the meso-unsubstituted analog ([5]; UV irradiation): ~ 2 times
half-life increase / photodestruction rate constant decrease compared to 7 ([5]; studied solvents): 1.5–2.2 times
SMILES: CC1=CC(C)=[N+]2C1=C(CCCC(=O)OCCSC1CC3CCC1(C)C3(C)C)c1c(C)cc(C)n1[B-]2(F)F (stereo not shown) [Compound 6]
relative content of BODIPY-positive cells (RBC): more than an order of magnitude higher
hemolysis of RBC (erythrotoxicity) [2]: did not exceed the spontaneous level
penetration into erythrocytes (fluorescence of RBC hemolysates) ([4]; 20 μM, 10, 30, 60 min incubation, RBC washed three times with PBS): actively penetrates erythrocytes
absorption by RBC from the incubation medium (decline of supernatant fluorescence) ([4]; 20 μM, 60 min incubation, PBS): more intensively than the initial BODIPY 2

solubility in the micellar solution [6]: better solubility
SMILES: CC1(C)C2CC=C(CO)C1C2 (stereo not shown) [myrtenol]
